Measured values: US20190225650A1, “PEPTIDOMIMETIC MACROCYCLES AND USE THEREOF IN REGULATING HIF1ALPHA” (AILERON THERAPEUTICS, INC., priority 2013, published 2019)
Bridge positions count the residues as written; N and C are the ends. Square brackets hold non-standard residues; d marks the D form. Peptide text beside a SMILES is read from it. Phe(4-COOH) = N[C@@H](Cc1ccc(C(=O)O)cc1)C(=O)O; R8 = C=CCCCCCC[C@@](C)(N)C(=O)O; S5 = C=CCCC[C@](C)(N)C(=O)O; Nle = CCCC[C@H](N)C(=O)O

Experiments:
[1] = target: T1, flag-tagged HIF1α (AA 786-826) / His6-tagged p300 (AA 323-423) complex (Homo sapiens, UniProt Q09472); test: HIF1α p300 displacement assay (TR FRET, +CHAPS); format: binding; conditions: read-out: IC50 (nM) (HIF1α_p300 Displacement + CHAPS)
T1 construct: His6-tagged p300 (AA 323-423); made in house; host or cells: E. coli (pETDuet vector)
Summary of the method: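 The co-expressed flag-HIF1α (786-826)/His6-p300 (323-423) complex, purified from E. coli with 0.1 mM ZnSO4, was used at 300 nM final with competitor peptides for 1 h at room temperature. Buffer was 150 mM NaCl, 20 mM HEPES pH 7.4, 7.5 mM CHAPS and 1 mM DTT. Anti-Flag-K (0.5 μM) and anti-His-D2 (4 nM) were then added for 2 h, and IC50s were fitted from the TR-FRET ratio.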

HRE-bla ME-180 cells [2] = test: Cell proliferation assay (viability, MTT, 1% FBS); format: cell-based, human
Summary of the method: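 ME-180 cells (2×10^4/well) in Opti-MEM with 1% FBS were pretreated 16 h under normoxia (21% O2), vehicle 0.5% DMSO final. Incubation then continued under normoxia or hypoxia (1% O2); viable cells quantified by MTT-type CellTiter 96 assay.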

HRE-bla ME-180 cells [3] = test: Reporter gene assay (HRE-bla ME-180 HIF reporter, GeneBLAzer); format: cell-based, human; conditions: for EC50: 24 hour normoxia
Summary of the method: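 A FRET β-lactamase readout of HIF transcription was used. After compound treatment in 0.3% DMSO/media under normoxic conditions, 20 μl of 6× LiveBLAzer-FRET B/G (CCF4-AM) substrate was added. Plates sat 3 hr at room temperature in the dark and were read at 409 Ex/460Em and 409Ex/530Em on a Synergy 2. Inhibition was compared against DMSO vehicle controls, with chetomin as positive control.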

SMILES	IC50 [1] [nM]	Viability 1% FBS AVG (MTT V3-24 hr Normoxia) (μM) (HRE-bla ME-180 cells [2])	18 h Avg % max inhibition at top conc (HIF Rptr-24 hrs normoxia) (μM) (HRE-bla ME-180 cells [3])	EC50 (HRE-bla ME-180 cells [3]) [µM]
CCCC[C@@H]1NC(=O)[C@H](CC(C)C)NC(=O)[C@](C)(NC(=O)[C@H](CCC(=O)O)NC(=O)[C@H](CCC(=O)O)NC(=O)[C@H](CC(=O)O)NC(=O)[C@@H](NC(=O)[C@H](CC(N)=O)NC(=O)[C@@H](NC(=O)[C@]2(C)CCCC=CCCCCCC[C@@](C)(NC(=O)[C@H](CCC(=O)O)NC(=O)CNC(=O)[C@H](CCC(N)=O)NC(=O)[C@H](CC(C)C)NC(=O)[C@H](CC(C)C)NC(C)=O)C(=O)N[C@@H](CC(C)C)C(=O)N[C@@H](CC(C)C)C(=O)N[C@@H](CCCNC(=N)N)C(=O)N[C@@H](C)C(=O)N[C@@H](CC(C)C)C(=O)N[C@@H](CC(=O)O)C(=O)N2)C(C)C)[C@@H](C)CC)CCCCCCC=CCCC[C@@](C)(C(=O)N[C@@H](CCCC)C(=O)NCC(N)=O)NC(=O)[C@H]([C@@H](C)CC)NC(=O)[C@H](C(C)C)NC(=O)[C@H](CC(C)C)NC(=O)[C@H](CO)NC1=O [SP-332] (Ac-LLQGE[R8]LLRALD[S5]VNIDEE[R8]L[Nle]SLVI[S5][Nle]G-NH2; staple 6-13, 20-27)	≤ 200	++++ (≥30: ++++)	+ (<10: +)	> 30
CCCC[C@H](NC(=O)[C@H](CC(C)C)NC(=O)[C@@H](NC(=O)[C@H](CCC(=O)O)NC(=O)[C@H](CCC(=O)O)NC(=O)[C@H](CC(=O)O)NC(=O)[C@@H](NC(=O)[C@H](CC(N)=O)NC(=O)[C@@H](NC(=O)[C@H](CCC(N)=O)NC(=O)[C@H](CC(=O)O)NC(=O)[C@H](CC(C)C)NC(=O)[C@H](C)NC(=O)[C@]1(C)CCCC=CCCC[C@](C)(NC(=O)CNC(=O)[C@H](CCC(N)=O)NC(=O)[C@H](CC(C)C)NC(=O)[C@H](CC(C)C)NC(C)=O)C(=O)N[C@@H](CCC(=O)O)C(=O)N[C@@H](CC(C)C)C(=O)N[C@@H](CC(C)C)C(=O)N1)C(C)C)[C@@H](C)CC)C(C)C)C(=O)N[C@@]1(C)CCCC=CCCC[C@@](C)(C(=O)N[C@@H](CCCC)C(=O)NCC(N)=O)NC(=O)[C@H]([C@@H](C)CC)NC(=O)[C@H](C(C)C)NC(=O)[C@H](CC(C)C)NC1=O [SP-338] (Ac-LLQG[S5]ELL[S5]ALDQVNIDEEVL[Nle][S5]LVI[S5][Nle]G-NH2; staple 5-9, 23-27)	> 700	++++ (≥30: ++++)	+++ (≤25 but <50: +++)	> 30
CCCC[C@H](NC(=O)[C@H](CCC(=O)O)NC(=O)[C@@H](NC(=O)[C@@H](NC(=O)[C@H](CC(C)C)NC(=O)[C@]1(C)CCCC=CCCC[C@](C)(NC(=O)[C@H](C)NC(=O)[C@H](CC(=O)O)NC(=O)[C@@H](NC(=O)[C@H](Cc2ccccc2)NC(C)=O)[C@@H](C)CC)C(=O)N[C@@H]([C@@H](C)O)C(=O)N[C@@H](CC(C)C)C(=O)N[C@@H](CCCC)C(=O)N1)C(C)C)[C@@H](C)CC)C(=O)N[C@@H](C)C(=O)N[C@@H](CC(C)C)C(N)=O [SP-149] (Ac-FIDA[S5]TL[Nle][S5]LVIE[Nle]AL-NH2; staple 5-9)	400 to 700	+ (<5: +)	++++ (≥50: ++++)	5 to 15
CC[C@H](C)[C@H](NC(=O)[C@H](Cc1ccccc1)NC(C)=O)C(=O)N[C@@H](CC(=O)O)C(=O)N[C@@H](CCC(=O)O)C(=O)N[C@@H](CC(N)=O)C(=O)N[C@H](C(=O)N[C@@H](CC(C)C)C(=O)N[C@@H](CCSC)C(=O)N[C@@]1(C)CCCC=CCCC[C@@](C)(C(=O)N[C@@H](CCSC)C(=O)N[C@@H](C)C(=O)N[C@@H](CC(C)C)C(N)=O)NC(=O)[C@H]([C@@H](C)CC)NC(=O)[C@H](C(C)C)NC(=O)[C@H](CC(C)C)NC1=O)C(C)C [SP-235] (Ac-FIDENVLM[S5]LVI[S5]MAL-NH2; staple 9-13)	> 700	++++ (≥30: ++++)	+++ (≤25 but <50: +++)	15 to 30
CC[C@H](C)[C@H](NC(=O)[C@H](Cc1ccccc1)NC(C)=O)C(=O)N[C@@H](CC(=O)O)C(=O)N[C@@H](Cc1ccc(C(=O)O)cc1)C(=O)N[C@@H](CCC(=O)O)C(=O)N[C@H](C(=O)N[C@@H](CC(C)C)C(=O)N[C@@H](CCSC)C(=O)N[C@@]1(C)CCCC=CCCC[C@@](C)(C(=O)N[C@@H](CCSC)C(=O)N[C@@H](C)C(=O)N[C@@H](Cc2ccccc2)C(N)=O)NC(=O)[C@H]([C@@H](C)CC)NC(=O)[C@H](C(C)C)NC(=O)[C@H](CC(C)C)NC1=O)C(C)C [SP-228] (Ac-FID[Phe(4-COOH)]EVLM[S5]LVI[S5]MAF-NH2; staple 9-13)	200 to 400	++++ (≥30: ++++)	+++ (≤25 but <50: +++)	> 30
CCCC[C@H](NC(=O)[C@H](CCC(=O)O)NC(=O)[C@@H](NC(=O)[C@@H](NC(=O)[C@H](CC(C)C)NC(=O)[C@]1(C)CCCC=CCCC[C@](C)(NC(=O)[C@H](CCC(=O)O)NC(=O)[C@H](CC(=O)O)NC(=O)[C@@H](NC(=O)[C@H](Cc2ccccc2)NC(C)=O)[C@@H](C)CC)C(=O)N[C@@H](C(C)C)C(=O)N[C@@H](CC(C)C)C(=O)N[C@@H](CCCC)C(=O)N1)C(C)C)[C@@H](C)CC)C(=O)N[C@@H](C)C(=O)N[C@@H](CC(C)C)C(N)=O [SP-111] (Ac-FIDE[S5]VL[Nle][S5]LVIE[Nle]AL-NH2; staple 5-9)	200 to 400	++++ (≥30: ++++)	++++ (≥50: ++++)	> 30
CCCC[C@@H]1NC(=O)[C@H](CC(C)C)NC(=O)[C@](C)(NC(=O)[C@H](CCC(=O)O)NC(=O)[C@H](CCC(=O)O)NC(=O)[C@H](CC(=O)O)NC(=O)[C@@H](NC(=O)[C@H](Cc2ccccc2)NC(C)=O)[C@@H](C)CC)CCCCCCC=CCCC[C@@](C)(C(=O)N[C@@H](CCCC)C(=O)N[C@@H](C)C(=O)N[C@@H](CC(C)C)C(N)=O)NC(=O)[C@H]([C@@H](C)CC)NC(=O)[C@H](C(C)C)NC(=O)[C@H](CC(C)C)NC(=O)[C@H](CO)NC1=O [SP-199] (Ac-FIDEE[R8]L[Nle]SLVI[S5][Nle]AL-NH2; staple 6-13)	200 to 400	++++ (≥30: ++++)	+ (<10: +)	> 30
CCCC[C@H](NC(=O)[C@H](CC(C)C)NC(=O)[C@@H](NC(=O)[C@H](CCC(=O)O)NC(=O)[C@H](CCC(=O)O)NC(=O)[C@H](CC(=O)O)NC(=O)[C@@H](NC(=O)[C@H](CC(N)=O)NC(=O)[C@@H](NC(=O)[C@H](CCC(N)=O)NC(=O)[C@H](CC(=O)O)NC(=O)[C@H](CC(C)C)NC(=O)[C@H](C)NC(=O)[C@H](CCCNC(=N)N)NC(=O)[C@]1(C)CCCC=CCCC[C@](C)(NC(=O)[C@H](CCC(N)=O)NC(=O)[C@H](CC(C)C)NC(=O)[C@H](CC(C)C)NC(C)=O)C(=O)N[C@@H](CCC(=O)O)C(=O)N[C@@H](CCC(=O)O)C(=O)N[C@@H](CC(C)C)C(=O)N1)C(C)C)[C@@H](C)CC)C(C)C)C(=O)N[C@@]1(C)CCCC=CCCC[C@@](C)(C(=O)N[C@@H](CCCC)C(=O)NCC(N)=O)NC(=O)[C@H]([C@@H](C)CC)NC(=O)[C@H](C(C)C)NC(=O)[C@H](CC(C)C)NC1=O [SP-306] (Ac-LLQ[S5]EEL[S5]RALDQVNIDEEVL[Nle][S5]LVI[S5][Nle]G-NH2; staple 4-8, 23-27)	≤ 200	++++ (≥30: ++++)	+++ (≤25 but <50: +++)	> 30
